In the NIST ThermoML archive (doi:10.1021/acs.jced.8b00678) one finds refractive index data, which are given here for five molecules.

Where “and” joins values, the source holds several entries; their conditions need not be identical. Identical values can stand only once. Numbers after ± are expanded uncertainties.

This data set is described as follows: refractive index (Na D-line) (dimensionless); wn = mass fraction of the nth substance listed. To be noted: 298.15 K; 84.5 kPa; Liquid; Standard Abbe refractometry; w1 = 0.02.
Turning to `CCCCn1cc[n+](C)c1.F[B-](F)(F)F` [1-butyl-3-methylimidazolium tetrafluoroborate] + O, the refractive index was 1.3339 ± 0.00055 and 1.33393 ± 0.00055 and 1.33391 ± 0.00055. The value for `O=C(CO)[C@@H](O)[C@H](O)[C@H](O)CO` [D-fructose] + O was 1.33525 ± 0.00055; that for `O=C[C@H](O)[C@@H](O)[C@H](O)[C@H](O)CO` [D-glucose] + O was 1.33529 ± 0.00055. As for `OC[C@H]1O[C@@](CO)(O[C@H]2O[C@H](CO)[C@@H](O)[C@H](O)[C@H]2O)[C@@H](O)[C@@H]1O` [D-sucrose] + O, the refractive index is 1.33518 ± 0.00055.

Consider `O=C[C@H](O)[C@@H](O)[C@@H](O)CO` [L-arabinose] + O, for which the refractive index stood at 1.33523 ± 0.00055.

In general, refractive index refers to a measure of how strongly the sample bends light.
